Where “and” joins values, the source holds several entries; their conditions need not be identical. Equal entries are not always repeated. Where two headings read alike, the source gives them in different places.
How the values were obtained:
[1] = approximate, cited from earlier work
AF647‐labeled hCD1d [2] = target: T1, AF647‐labeled hCD1d (Homo sapiens, UniProt P15813+P61769); assay: Microscale thermophoresis (MST) binding assay
T1 construct: TEV protease cleavage site ENLYFQS (C); BirA biotinylation site (C); His7 (C); made in house; host or cells: TurboCHO cells (GenScript)
T1 sequence (P61769+P15813 fused): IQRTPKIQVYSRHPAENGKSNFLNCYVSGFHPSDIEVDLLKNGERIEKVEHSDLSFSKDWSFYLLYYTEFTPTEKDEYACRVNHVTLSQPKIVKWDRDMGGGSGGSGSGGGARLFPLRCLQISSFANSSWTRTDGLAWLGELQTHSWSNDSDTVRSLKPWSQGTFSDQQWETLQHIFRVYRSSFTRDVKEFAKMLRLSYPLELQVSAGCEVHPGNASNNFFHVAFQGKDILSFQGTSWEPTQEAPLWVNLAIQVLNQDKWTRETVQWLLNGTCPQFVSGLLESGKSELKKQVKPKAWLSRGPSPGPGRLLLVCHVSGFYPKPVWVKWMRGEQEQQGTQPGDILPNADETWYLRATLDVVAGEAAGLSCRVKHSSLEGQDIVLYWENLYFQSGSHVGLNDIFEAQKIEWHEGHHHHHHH
Excerpt: (§1) The experimental limitations of ITF, such as low instrument sensitivity, high sample consumption, signal overlap with some ligands, and low throughput (Fossum et al., [2023]), made it necessary to employ alternative, complementary assays to quantify detergent binding to hCD1d. […] MST measures the diffusion of fluorescent molecules in response to microscopic temperature gradients (Seidel et al., [2013]). When a protein forms a complex with a ligand, changes in hydrodynamic properties, charge, or solvation energy alter its thermophoretic behavior, allowing detection of binding events. To perform MST experiments, Alexa Fluor 647 (AF647) dye was covalently attached to the primary amines of hCD1d via standard N‐hydroxysuccinimide coupling chemistry (Anderson et al., [1964]). The concentration of AF647‐hCD1d was kept constant, and the change in MST signal was measured as a function of increasing detergent concentration (Figure S3). Like ITF, any lipid or detergent that destabilizes CD1 can also alter the MST signal since unfolding changes the protein's Stokes radius and its thermophoretic behavior. […] This is why we compare MST results with ITF and nanoDSF, as described below.
(§2) For MST, hCD1d was fluorescently labeled with AF647‐NHS Ester (Invitrogen #A20006). Briefly, a 10 mM stock of AF647‐NHS was prepared in anhydrous DMSO. Then, 100 μL of 50 μM hCD1d in 1X PBS pH 7.4 was mixed with 1 μL of 10 mM AF647‐NHS (1:2 molar ratio of protein: dye). The mixture was allowed to react for 1 h in the dark at 25°C. Unreacted dye was removed from the protein–dye conjugate by performing size exclusion chromatography in the dark with a Superdex 200 Increase 10/300 GL column at a flow rate of 0.5 mL/min in SEC buffer (100 mM NaCl, 20 mM sodium phosphate, pH 7.2). The degree of labeling was determined by a NanoDrop spectrophotometer at A647 nm (dye absorbance) and A280 nm (hCD1d absorbance). The degree of labeling was determined from the ratio of dye concentration to protein concentration. The degree of labeling was ~75%.
(§3) MST experiments were performed using a Monolith NT.115 instrument (NanoTemper Technologies) using Monolith standard capillaries and the red excitation laser setup. The following settings were applied for all MST experiments: excitation power: 30%–50%, MST power: medium, before MST time: 3 s, MST on time (IR laser): 20 seconds, and after MST time: 1 s. MST measurements were analyzed using the Monolith Affinity Analysis software v2.3 and exported for plotting in GraphPad Prism v10.1. Three replicates were performed, and data are presented as the mean ± standard deviation (n = 3).
(§4) MST measurements of 100 nM AF647‐hCD1d were acquired in the absence and presence of detergents in 1X PBS pH 7.4 at 25°C. Prior to data acquisition, hCD1d and detergent or lipid samples were incubated at 37°C overnight (~12 h) to simulate in vitro and in vivo loading conditions. […] For 18:1 LPC experiments: MST data of 100 nM AF647‐hCD1d were acquired in the absence and presence of 18:1 LPC in 1X PBS pH 7.4 at 25°C.

hCD1d [3] = target: T2, hCD1d (Homo sapiens, UniProt P15813+P61769); design: method as in Cantu et al., 2003; Naidenko et al., 1999; settings: previously estimated, in the presence of detergent; ref Cantu et al., 2003; Naidenko et al., 1999; read-out: binding affinity to hCD1d; cited from earlier work
T2 sequence (P61769+P15813 fused): as above

[4] = Lipid solubility on resuspension in buffer; format: physicochemical; settings: 1X PBS pH 7.4 with or without detergent
Excerpt: Detergents were resuspended to desired stock concentrations in 1X PBS pH 7.4 using sonication/heating. The following lipids were purchased: 1‐oleoyl‐2‐hydroxy‐sn‐glycero‐3‐phosphocholine (18:1 LPC, Avanti Research #845875) and α‐galactosyl ceramide (α‐GalCer, Avanti Research #867000).

hCD1d [5] = target: T2, hCD1d; assay: Nano differential scanning fluorimetry (nanoDSF) thermal stability; format: binding; design: TEV protease cleavage site ENLYFQS (C); BirA biotinylation site (C); His7 (C); made in house; host or cells: TurboCHO cells (GenScript)
Excerpt: We next sought to probe the ability of each detergent to influence the thermal stability of hCD1d. NanoDSF has been previously applied to measure lipid/detergent‐induced thermal stability changes in target proteins (Cecchetti et al., [2021]; Kotov et al., [2019]), but has not yet been applied to ligand binding to CD1. NanoDSF measures the ITF ratio (F 350 nm/F 330 nm) of proteins as a function of temperature to extract thermodynamic parameters. Given that ligand binding typically shifts the melting temperature of proteins, the effect of a ligand on protein stability can be approximated with the ΔT m value (the difference in T m with and without excess ligand) (Cecchetti et al., [2021]; Kotov et al., [2019]). We found all detergents tested to destabilize hCD1d, albeit to different degrees, with ΔT m values ranging from −0.8 to −14.2°C (Figures 4, S4, and Table 1).
Nano differential scanning fluorometry (nanoDSF) was performed using a Prometheus NT.48 (NanoTemper Technologies). Purified hCD1d at 1 μM in 1X PBS pH 7.4 was loaded into nanoDSF grade standard capillaries (NanoTemper Technologies) and exposed to temperatures ranging from 20 to 95°C with a thermal ramping rate of 1°C/min. Excitation power was set to 50%. The ratio of intrinsic fluorescence emission (F 350 nm/F 330 nm) was monitored. Melting temperatures (T m) were obtained from fitting the first derivative plots in the Prometheus NT.48 Software. The experiments were performed in triplicate, and data are presented as the mean ± standard deviation (n = 3).
For experiments with most detergents, prior to data acquisition, hCD1d and detergent or lipid samples were incubated at 37°C overnight (~12 h) to simulate in vitro and in vivo loading conditions. […] For 18:1 LPC experiments: nanoDSF spectra were acquired in the absence and presence of 18:1 LPC in 1X PBS pH 7.4 at 25°C.

AF647‐labeled hCD1d [6] = target: T3, AF647‐labeled hCD1d (Homo sapiens, UniProt P15813); assay: Microscale thermophoresis (MST) binding assay; settings: read-out: K D (MST) of lipid
T3 construct: TEV protease cleavage site ENLYFQS (C); BirA biotinylation site (C); His7 (C); made in house; host or cells: TurboCHO cells (GenScript)
T3 sequence (P15813 whole entry, looked up): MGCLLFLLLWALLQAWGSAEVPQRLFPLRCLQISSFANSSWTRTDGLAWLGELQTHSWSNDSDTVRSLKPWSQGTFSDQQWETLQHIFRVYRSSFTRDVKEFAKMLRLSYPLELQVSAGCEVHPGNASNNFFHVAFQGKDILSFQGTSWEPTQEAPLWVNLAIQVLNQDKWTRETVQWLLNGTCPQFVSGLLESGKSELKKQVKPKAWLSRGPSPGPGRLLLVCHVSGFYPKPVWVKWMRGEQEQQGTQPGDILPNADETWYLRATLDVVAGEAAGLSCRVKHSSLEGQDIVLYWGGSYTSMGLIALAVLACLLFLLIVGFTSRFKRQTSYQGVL
Excerpt: as §1, §2, §3, §4

[7] = target: T4, recombinant human CD1d ectodomain/β2m complex (hCD1d) (Homo sapiens, UniProt P15813); assay: Intrinsic tryptophan fluorescence (ITF) binding assay; settings: 18:1 LPC titration with 0.05% CHAPS; read-out: K D (ITF) of lipid
T4 construct: TEV protease cleavage site ENLYFQS (C); BirA biotinylation site (C); His7 (C); made in house; host or cells: TurboCHO cells (GenScript)
T4 sequence (P15813 whole entry, looked up, the tested form may be a part, one chain of several): as the sequence (P15813 whole entry, looked up) above
Description: For ITF assays, the concentration of hCD1d was kept constant, and intrinsic Trp fluorescence (excitation at 285 nm, emission at 335 nm) was measured as a function of increasing detergent concentration (Fossum et al., [2023]) (Figure S2). The change in relative fluorescence intensity (F − F 0/F 0) provides an indication of binding. […] This was due to limited detergent solubility and decreased hCD1d stability in the presence of a large excess of detergent (see below). […] SDS was the exception, for which Trp fluorescence of hCD1d decreased with added detergent. This could indicate a unique conformational change or destabilization of the protein.
ITF spectra were recorded from 300 to 500 nm using a Horiba FL3‐21 Fluorometer with the excitation wavelength of 285 nm and excitation/emission slits of 6.2 nm. Fluorescence spectra of 50 to 100 nM hCD1d were acquired in the absence and presence of detergents in 1X PBS pH 7.4 at 25°C. Prior to data acquisition, hCD1d and detergent or lipid samples were incubated at 37°C overnight (~12 h) to simulate in vitro and in vivo loading conditions. […] For 18:1 LPC experiments, fluorescence spectra of 100 nM hCD1d were acquired in the absence and presence of 18:1 LPC in 1X PBS pH 7.4 at 25°C. […] For all ITF experiments, the change in fluorescence signal (F − F 0/F 0) was determined at 335 nm. Three replicates were performed, and data are presented as the mean ± standard deviation (n = 3). K D values were fitted with non‐linear regression in GraphPad Prism v10.1.

CD1c = test system: CD1c; design: method as in Mansour et al., 2016; settings: ref Mansour et al., 2016; cited from earlier work
[8] = 0.001 M detergent, 100 nM AF647‐hCD1d
[9] = Figure 5B, detergent binding to hCD1d, read-out: MST - Kd (uM) average
[10] = detergent with 100 nM AF647‐labeled hCD1d, 25°C, apparent, read-out: K D (MST)

Row | Molecule | Fnorm (rep 1-3) (AF647‐labeled hCD1d [2]; 3.05176e-8 M detergent) | Fnorm (rep 1-3) (AF647‐labeled hCD1d [2]; 6.10352e-8 M detergent) | Fnorm (rep 1-3) (AF647‐labeled hCD1d [2]; 1.2207e-7 M detergent) | Fnorm (rep 1-3) (AF647‐labeled hCD1d [2]; 2.44141e-7 M detergent) | Fnorm (rep 1-3) (AF647‐labeled hCD1d [2]; 4.88281e-7 M detergent) | Fnorm (rep 1-3) (AF647‐labeled hCD1d [2]; 9.76563e-7 M detergent) | Fnorm (rep 1-3) (AF647‐labeled hCD1d [2]; 1.95313e-6 M detergent) | Fnorm (rep 1-3) (AF647‐labeled hCD1d [2]; 3.90625e-6 M detergent) | Fnorm (rep 1-3) (AF647‐labeled hCD1d [2]; 7.8125e-6 M detergent) | Fnorm (rep 1-3) (AF647‐labeled hCD1d [2]; 1.5625e-5 M detergent) | Fnorm (rep 1-3) (AF647‐labeled hCD1d [2]; 3.125e-5 M detergent) | Fnorm (rep 1-3) (AF647‐labeled hCD1d [2]; 6.25e-5 M detergent) | Fnorm (rep 1-3) (AF647‐labeled hCD1d [2]; 0.000125 M detergent) | Fnorm (rep 1-3) (AF647‐labeled hCD1d [2]; 0.00025 M detergent) | Fnorm (rep 1-3) (AF647‐labeled hCD1d [2]; 0.0005 M detergent) | Fnorm (rep 1-3) (AF647‐labeled hCD1d [2]; [8]) | Kd (AF647‐labeled hCD1d [2]; [9]) [µM] | Kd (AF647‐labeled hCD1d [2]; [10]) [µM] | other results
1 | NP‐40 | 785.26 ‰ and 791.115 ‰ and 789.222 ‰ | 784.438 ‰ and 791.56 ‰ and 788.778 ‰ | 784.577 ‰ and 791.858 ‰ and 788.445 ‰ | 783.564 ‰ and 789.878 ‰ and 788.022 ‰ | 786.159 ‰ and 790.976 ‰ and 787.911 ‰ | 783.182 ‰ and 790.102 ‰ and 788.409 ‰ | 785.891 ‰ and 792.21 ‰ and 790.819 ‰ | 790.454 ‰ and 796.89 ‰ and 795.418 ‰ | 794.424 ‰ and 799.885 ‰ and 798.852 ‰ | 798.147 ‰ and 805.399 ‰ and 802.688 ‰ | 808.083 ‰ and 815.048 ‰ and 810.611 ‰ | 810.692 ‰ and 818.134 ‰ and 815.29 ‰ | 813.488 ‰ and 820.003 ‰ and 816.128 ‰ | 817.047 ‰ and 822.493 ‰ and 816.971 ‰ | 814.88 ‰ and 822.01 ‰ and 817.951 ‰ | 817.154 ‰ and 821.721 ‰ and 817.771 ‰ | 15.1 | 15.1 ± 1.5 | CMC ([1]; ref Fisher catalogue): 290 µM; CMC ([1]; weight/volume, ref Fisher catalogue): 0.0179%
2 | CCCCCCCCCCCCCCCCCCCCCCCCCC(=O)N[C@@H](CO[C@H]1O[C@H](CO)[C@H](O)[C@H](O)[C@H]1O)[C@H](O)[C@H](O)CCCCCCCCCCCCCC [α‐GalCer, α‐galactosyl ceramide] | – | – | – | – | – | – | – | – | – | – | – | – | – | – | – | – | – | – | Kd (hCD1d [3]): 0.1 to 0.5 µM; solubility (in words) [4]: only soluble in the presence of Tween 20; ΔT m (nanoDSF) of lipid (hCD1d [5]; absence vs presence of 50 μM α‐GalCer, with 0.05% Tween 20): +13.7 ± 0.2 °C; Kd (AF647‐labeled hCD1d [6]; α‐GalCer titration with 0.05% Tween 20, estimated): 6.6 ± 4.1 µM
3 | CCCCCCCC/C=C\CCCCCCCC(=O)OC[C@@H](O)COP(=O)([O-])OCC[N+](C)(C)C [18:1 LPC, 1‐oleoyl‐2‐hydroxy‐sn‐glycero‐3‐phosphocholine] | – | – | – | – | – | – | – | – | – | – | – | – | – | – | – | – | – | – | ΔT m (nanoDSF) of lipid (hCD1d [5]; absence vs presence of 200 μM 18:1 LPC, no detergent): −8.1 ± 1.7 °C; Kd [7]: 59.9 ± 19.4 µM; Kd (AF647‐labeled hCD1d [6]; 18:1 LPC titration with 0.05% CHAPS): 5.6 ± 1.3 µM; Kd (AF647‐labeled hCD1d [6]; 18:1 LPC titration, absence of detergent, 100 nM AF647‐hCD1d, 25°C): ~7.7 µM and 7.7 µM
4 | Triton X‐100 | 791.41 ‰ and 793.583 ‰ and 796.04 ‰ | 790.759 ‰ and 794.057 ‰ and 796.294 ‰ | 791.349 ‰ and 794.228 ‰ and 797.32 ‰ | 790.267 ‰ and 793.445 ‰ and 796.715 ‰ | 790.372 ‰ and 793.504 ‰ and 796.705 ‰ | 791.231 ‰ and 794.12 ‰ and 796.582 ‰ | 791.888 ‰ and 794.837 ‰ and 796.079 ‰ | 797.735 ‰ and 798.529 ‰ and 800.673 ‰ | 801.114 ‰ and 802.717 ‰ and 802.805 ‰ | 806.412 ‰ and 805.281 ‰ and 808.579 ‰ | 808.925 ‰ and 810.844 ‰ and 811.355 ‰ | 813.586 ‰ and 816.925 ‰ and 817.48 ‰ | 826.07 ‰ and 832.084 ‰ and 828.584 ‰ | 828.437 ‰ and 829.609 ‰ and 830.632 ‰ | 829.715 ‰ and 832.769 ‰ and 836.286 ‰ | 833.009 ‰ and 835.212 ‰ and 836.54 ‰ | 45.8 | 45.8 ± 7.9 | CMC ([1]; ref Anatrace catalogue): 230 µM; CMC ([1]; weight/volume, ref Anatrace catalogue): 0.015%; stripping of lipid antigens from CD1c (in words) (CD1c): could efficiently strip lipid antigens away
